# Test results as given in PMC6264874, “A single class of ARF GTPase activated by several pathway-specific ARF-GEFs regulates essential membrane traffic in Arabidopsis” (PLoS Genetics, 2018).
# Tests used:
# [1] = target: T1, ARF1 (ARFA1c), residues 18-181 (Arabidopsis thaliana, UniProt P36397); test: tryptophan fluorescence nucleotide exchange (ex […] nm, em […] nm); type: binding; settings: 1 uM GDP-loaded ARF, 66 uM GTPgammaS, 50 nM SEC7 domain of BIG5 (residues 587-791), 10 mM MgCl2, pH 7.5, 37 C
# T1 construct: N-terminally truncated (residues 18-181), 6xHis-tagged (pET30a), expressed in E. coli BL21(DE3), Ni-NTA purified
# [2] = target: T2, ARFA (ARFB1b), residues 18-192 (Arabidopsis thaliana, UniProt Q9LFJ7); test: as above; type: binding; settings: 1 uM GDP-loaded ARF, 66 uM GTPgammaS, 50 nM SEC7 domain of BIG5 (residues 587-791), 10 mM MgCl2, pH 7.5, 37 C
# T2 construct: N-terminally truncated (residues 18-192), 6xHis-tagged (pET30a), expressed in E. coli BL21(DE3), Ni-NTA purified
# T2 sequence (Q9LFJ7 18-192): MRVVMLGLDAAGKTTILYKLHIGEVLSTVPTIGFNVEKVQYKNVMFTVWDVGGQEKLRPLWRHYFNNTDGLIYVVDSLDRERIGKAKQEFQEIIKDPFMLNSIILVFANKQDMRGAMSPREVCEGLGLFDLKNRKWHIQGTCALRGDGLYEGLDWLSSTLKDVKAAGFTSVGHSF
# T1 sequence (P36397 18-181): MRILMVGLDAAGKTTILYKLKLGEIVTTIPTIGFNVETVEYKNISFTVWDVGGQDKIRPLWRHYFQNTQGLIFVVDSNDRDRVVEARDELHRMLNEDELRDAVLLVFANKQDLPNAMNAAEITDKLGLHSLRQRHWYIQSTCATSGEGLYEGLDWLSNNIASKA
compound,measurement,setting,value
Nc1nc2c(ncn2[C@@H]2O[C@H](COP(=O)(O)OP(=O)(O)OP(O)(O)=S)[C@@H](O)[C@H]2O)c(=O)[nH]1 [GTPγS],"tryptophan fluorescence nucleotide exchange (ex 298 nm, em 340 nm)",[1],"The SEC7 domain of BIG5 catalyzed GDP-GTP exchange on ARF1(wt), ARFA(wt) and ARFA-Q71L"
same,"tryptophan fluorescence nucleotide exchange (ex 298 nm, em 340 nm)",[2],"The SEC7 domain of BIG5 catalyzed GDP-GTP exchange on ARF1(wt), ARFA(wt) and ARFA-Q71L"
